Measured values from patent US4031077A, “Antibacterial 3-phosphono penams” (priority 1976, dated 1977).
Several values for one entry are separate records, joined by “and”; a condition that tells them apart may be missing. Equal entries are not always repeated. Structures can show the parent of a compound that is named as a salt. Where two headings read alike, the source gives them in different places.

Columns and labels:
Strep. zoo. = assay type: cell-based, Streptococcus zoobacter; conditions: Strep. zoo. strain 02H001, brain-heart infusion agar, 10^5-10^6 cells, 37° C., anaerobic, sodium salt, Test No. 1-3
Strep. equi. = assay: microbe, parasite or virus in culture; assay type: cell-based, Streptococcus equis; conditions: 10^5-10^6 cells, 37° C., anaerobic, sodium salt, Test No. 1-2
Staph. aureus = assay type: cell-based, Staphlococcus aureus

Structure (SMILES): CC1(C)S[C@@H]2C(NC(=O)COc3ccccc3)C(=O)N2C1P(=O)(O)O.[Na] (stereo partly drawn) [6-(2-Phenoxyacetamido)-2,2-dimethyl-3-phosphonopenam, sodium salt]
- MIC (minimal inhibitory concentration) (Strep. zoo.): 100 µg/mL and 200 µg/mL
- MIC (minimal inhibitory concentration) (Strep. equi.; Strep. equi. strain 02I001, brain-heart infusion agar): 100 µg/mL
- MIC (minimal inhibitory concentration) (Staph. aureus; Staph. aureus strain 01A005, brain-heart infusion agar, 10^5-10^6 cells, 37° C., anaerobic, sodium salt, Test No. 1-3): > 200 µg/mL
- MIC (minimal inhibitory concentration) (Staph. aureus; Staph. aureus strain 01A006, brain-heart infusion agar, 10^5-10^6 cells, 37° C., anaerobic, sodium salt, Test No. 1-3): > 200 µg/mL

Structure (SMILES): COP(=O)(O)C1N2C(=O)C(NC(=O)COc3ccccc3)C2SC1(C)C (stereo not drawn) [6-(2-Phenoxyacetamido)-2,2-dimethyl-3-(0-methylphosphono)penam, sodium salt]
- MIC (Strep. equi.; Streptococcus equi, Strep. equi. strain 02I001, brain-heart infusion agar, read-out: MIC (minimal inhibitory concentration)): 200 µg/mL
- MIC (minimal inhibitory concentration) (Staph. aureus; Staph. aureus strain 01A006; brain-heart infusion agar, 10^5-10^6 cells, 37° C., anaerobic; sodium salt; Test No. 1-3): 200 µg/mL
